From US20250361485A1, “MODIFIED CD4+ T CELLS EXPRESSING IL-37 AND METHODS OF USE THEREOF” (The Regents of the University of Colorado, A Body Corporate, priority 2022, published 2025)
One block for each compound: values may come before it.

Assays:
caspase-1 = assay: FAM-FLICA caspase-1 activation assay in human Treg cells; format: cell-based
Protocol: Purified primary human CD4+ T cells were used for siRNA knockdown of RUNX1, RPTOR, IL37, CREB1, CHK1, NLRP2, NLRP3, NLRP4, ASC, and NLRC4, and CD4+CD25+CD127^dim T cells for siRNA knockdown of FOXP3 and IL37. Cells were purified from healthy donor PBMCs as described above and then placed in culture in complete RPMI 1640 for at least 2 h prior to siRNA transfection via nucleofection using the Amaxa P3 Primary Cell 4D-Nucleofector X Kit L (Lonza) following the manufacturer's instructions. […] Knockdowns were confirmed 24 hours after nucleofection by qRT-PCR or 48 hours later by western blot, and the relative density of the protein bands was determined using FIJI. […]
Purified lymphocytes from either humans or mice were washed with FACS buffer (5% BSA (Sigma-Aldrich) and 1×PBS), and then prepared for surface or intracellular staining, as described (Osborne and Wetzel, 2012). For surface staining, 1 μg or the manufacturer-recommended amounts of fluorescently conjugated antibody specific to the surface marker to be visualized was added to 1×10^6 cells resuspended in 100 μl of FACS buffer for 30 min at 4° C., then washed 2× with FACS buffer prior to being either analyzed or further processed. […] For measuring proliferation, cells were stained with 5-μM CFSE (Molecular Probes, Eugene, OR) prior to cell culture and analyzed using flow cytometry. […]

[1] = biological target: p-SMAD3 S208 (SMAD3 phosphorylated at Ser208), human, endogenous in human Treg cells (human) (UniProt P84022); assay: flow cytometry read-out in human Treg cells with or without 50 uM Ac-YVAD-CMK (FIG. 15D), presumably flow-based PLA
Chain of UniProt P84022 (P84022 2-425 limits assumed): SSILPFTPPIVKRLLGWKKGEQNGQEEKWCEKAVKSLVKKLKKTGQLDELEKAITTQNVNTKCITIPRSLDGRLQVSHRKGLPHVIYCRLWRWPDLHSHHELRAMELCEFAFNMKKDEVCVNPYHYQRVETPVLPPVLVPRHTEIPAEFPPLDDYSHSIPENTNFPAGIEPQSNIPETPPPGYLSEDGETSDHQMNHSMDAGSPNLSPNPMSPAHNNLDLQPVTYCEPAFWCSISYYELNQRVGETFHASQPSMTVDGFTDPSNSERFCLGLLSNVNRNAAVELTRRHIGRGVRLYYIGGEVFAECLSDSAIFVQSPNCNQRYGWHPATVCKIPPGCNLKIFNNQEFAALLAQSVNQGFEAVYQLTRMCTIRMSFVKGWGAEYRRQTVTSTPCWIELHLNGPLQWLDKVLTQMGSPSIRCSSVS

PAK1/2/3 = PAK1/2/3 inhibition in unstimulated human Treg cells; format: cell-based; settings: 1 μM
Protocol: Purified lymphocytes from either humans or mice were washed with FACS buffer (5% BSA (Sigma-Aldrich) and 1×PBS), and then prepared for surface or intracellular staining, as described (Osborne and Wetzel, 2012). For surface staining, 1 μg or the manufacturer-recommended amounts of fluorescently conjugated antibody specific to the surface marker to be visualized was added to 1×10^6 cells resuspended in 100 μl of FACS buffer for 30 min at 4° C., then washed 2× with FACS buffer prior to being either analyzed or further processed. For intracellular cytokine staining (ICS), the FOXP3 Cytoperm/Cytofix staining kit (BD Pharmingen, San Diego, CA) was used after cells were stimulated for 24 h on 1 μg/ml anti-CD3-coated plates with soluble 1 μg/ml anti-CD28 antibody or anti-CD3/CD28 conjugated Dynabeads™ (Gibco, Thermo Fisher). For measuring proliferation, cells were stained with 5-μM CFSE (Molecular Probes, Eugene, OR) prior to cell culture and analyzed using flow cytometry. Flow-based measurement of caspase-1 activation was done using the FAM-FLICA® Caspase-1 Assay kit #98 following the manufacturer's instructions (ImmunoChemistry Tech, Bloomington, MN). For flow cytometry experiments using the caspase-1 inhibitor Ac-YVAD-CMK, cells were cultured with 50 μM Ac-YVAD-CMK for 2 h prior to stimulation, 24 h (mouse), and 48 h (human), with anti-CD3/CD28 conjugated Dynabeads™ and then prepared for flow cytometry analyses. For experiments using the PAK1/2/3 inhibitor FRAX597, cells were cultured with 1 μM FRAX597 for either 24 h (flow and qRT-PCR) or 48 h (immunoblotting) and then prepared for analysis. For flow cytometry or qRT-PCR experiments using IL-6 treatment, human and mouse cells were cultured with 20 ng/ml IL-6 (Peprotech) and anti-CD3/CD28 conjugated Dynabeads™ and then prepared for analyses. […] All acquisitions were performed on a Galios® or Galios® 561 cytometer equipped with Kaluza software (Beckman-Coulter, Indianapolis, IN), and all data were analyzed with FlowJo_V10 software (Tree Star, Ashland, OR).

Compound: ASC: siRNA against ASC, SEQ ID NO: 1-2 (chain 1 GCUCUUCAGUUUCACACCAUU; chain 2 UGGUGUGAAACUGAAGAGCUU; chemistry not given here)
- caspase-1 activation compared to siRNA scramble control (caspase-1; primary human Treg cells, siRNA silencing): −20.5%

- decrease of the interaction after caspase-1 inhibitor Ac-YVAD-CMK, against untreated Treg cells [1]: 36.5%
Compound: Interleukin-37 (IL-37), human, endogenous in human Treg cells (from UniProt Q9NZH6 1-218) (ligand)

Compound: CCn1c(=O)c(-c2ccc(-c3cncs3)cc2Cl)cc2cnc(Nc3ccc(N4CCN(C)CC4)cc3)nc21 [FRAX 597]
- reduction in caspase-1 activation (caspase-1; human Treg cells, 1 μM, 24 hrs): 44%
- IL-37 localization (PAK1/2/3; 24 hrs): shift in IL-37 localization from the nucleus to the cytoplasm
- p-NLRC4 (S533), fold decrease (PAK1/2/3; 24 hrs): 1.9 fold
- FOXP3 gene and protein expression (PAK1/2/3; 24 hrs (gene), 48 hrs (protein)): decrease
